From PubChem BioAssay (NCI)
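Where inhibition never reached the appropriate level, the endpoint shown equals the highest concentration tested. Otherwise, values were interpolated linearly from a five-concentration, 48-hour dose response in 96-well plates. TGI: concentration producing complete growth inhibition.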

Assays:
Experiment in all cases: growth of human tumour cells (NCI), 48 h
786-0 renal = system: 786-0 renal
A549 NSCLC = system: A549 NSCLC
CAKI-1 renal = system: CAKI-1 renal
DU-145 prostate = system: DU-145 prostate
EKVX NSCLC = system: EKVX NSCLC
HT29 colon = system: HT29 colon
KM12 colon = system: KM12 colon
M14 melanoma = system: M14 melanoma
NCI-H23 lung = system: NCI-H23 lung
OVCAR-5 ovarian = system: OVCAR-5 ovarian
PC-3 prostate = system: PC-3 prostate
SF-539 CNS = system: SF-539 CNS
SK-MEL-5 melanoma = system: SK-MEL-5 melanoma
SNB-19 CNS = system: SNB-19 CNS
UO-31 renal = system: UO-31 renal
A498 renal = system: A498 renal
CCRF-CEM leukemia = system: CCRF-CEM leukemia
SF-268 CNS = system: SF-268 CNS
SR leukemia = system: SR leukemia

Structure (SMILES) | TGI (786-0 renal) [µM] | TGI (A549 NSCLC) [µM] | TGI (CAKI-1 renal) [µM] | TGI (DU-145 prostate) [µM] | TGI (EKVX NSCLC) [µM] | TGI (HT29 colon) [µM] | TGI (KM12 colon) [µM] | TGI (M14 melanoma) [µM] | TGI (NCI-H23 lung) [µM] | TGI (OVCAR-5 ovarian) [µM] | TGI (PC-3 prostate) [µM] | TGI (SF-539 CNS) [µM] | TGI (SK-MEL-5 melanoma) [µM] | TGI (SNB-19 CNS) [µM] | TGI (UO-31 renal) [µM] | TGI (A498 renal) [µM] | TGI (CCRF-CEM leukemia) [µM] | TGI (SF-268 CNS) [µM] | TGI (SR leukemia) [µM]
Cc1cc(O)c(/C=N/c2nc(-c3cccc([N+](=O)[O-])c3)cs2)c(=O)o1 | > 100 | > 100 | > 100 | > 100 | > 100 | > 100 | > 100 | > 100 | > 100 | > 100 | > 100 | > 100 | > 100 | > 100 | > 100 |  |  |  | 
CC([C@H]1CCC2C3CCC4CC5(CC[C@]4(C)C3CC[C@@]21C)c1ccccc1C(=O)N5C)N(C)C (stereo partly drawn) | 29.8 | > 100 | > 100 |  |  | 68.2 | > 100 | 38.7 | > 100 | > 100 |  | 71.8 | 42.9 | > 100 | 50.2 | > 100 | > 100 | > 100 | 74.7
Cc1ccc2cccc3c2c1CC1(C3=O)S(=O)(=O)OCCOS1(=O)=O | > 100 | > 100 | > 100 | > 100 | > 100 | > 100 | > 100 | > 100 | > 100 | > 100 | > 100 | > 100 | > 100 | > 100 | > 100 | > 100 | > 100 | > 100 | 
COc1ccccc1N=N/C(=N/NC(=O)c1ccc(C)cc1)c1ccc(N(CCC#N)CCC#N)cc1OC | > 100 | > 100 | > 100 | > 100 | 69.2 | 85.4 | 84.4 | > 100 | > 100 | > 100 | 71.2 |  | > 100 | > 100 | > 100 | 55.8 | 40.9 | 77.8 | 
Cc1ccc(/C=N/NC2=NCCN2)s1 | > 100 | > 100 | > 100 | > 100 | > 100 | > 100 | > 100 | > 100 | > 100 | > 100 | > 100 | > 100 | > 100 | > 100 | > 100 |  |  | > 100 | 
O=c1c(-c2ccccc2Cl)coc2cc(F)ccc12 | > 100 | > 100 | > 100 | 83.9 | > 100 | > 100 | 71.8 | 55.6 | > 100 | > 100 | > 100 | 31.6 | > 100 | > 100 | > 100 | 47.2 | > 100 | > 100 | 
CN[C@@H](C)[C@H](OP(=O)(O)OC1[C@@H](O)[C@H](O)C(O)[C@H](O)[C@@H]1O)c1ccccc1 (stereo partly drawn) | > 100 | > 100 | > 100 | > 100 | > 100 | > 100 | > 100 | > 100 | > 100 | > 100 | > 100 | > 100 | > 100 | > 100 | > 100 | > 100 | > 100 | > 100 | 
